Assay [1] can be described thus: DRUGMATRIX: Calcium Channel Type L, Benzothiazepine radioligand binding (ligand: [3H] Diltiazem). In kind it is cell membranes, Rattus norvegicus, Wistar, Brain, Membrane. The settings on record: Not Active = under 50% inhibition at 10 µM.
Assay [2] has as its target T1, 5-hydroxytryptamine receptor 2C (Homo sapiens, UniProt P28335).
T1 sequence (P28335 whole entry): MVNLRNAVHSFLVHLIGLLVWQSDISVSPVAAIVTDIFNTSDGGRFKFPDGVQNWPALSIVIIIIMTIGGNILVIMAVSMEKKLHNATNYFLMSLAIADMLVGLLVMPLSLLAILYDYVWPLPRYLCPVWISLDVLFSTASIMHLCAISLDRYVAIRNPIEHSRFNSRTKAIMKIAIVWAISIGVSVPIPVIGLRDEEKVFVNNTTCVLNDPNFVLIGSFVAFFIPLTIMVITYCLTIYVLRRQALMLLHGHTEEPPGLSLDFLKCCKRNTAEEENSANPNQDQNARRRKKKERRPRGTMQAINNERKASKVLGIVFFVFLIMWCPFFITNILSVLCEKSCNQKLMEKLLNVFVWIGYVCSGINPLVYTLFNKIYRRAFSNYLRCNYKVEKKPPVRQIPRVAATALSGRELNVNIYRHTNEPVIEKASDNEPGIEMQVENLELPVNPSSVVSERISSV
The assay is described as follows: DRUGMATRIX: Serotonin (5-Hydroxytryptamine) 5-HT2C radioligand binding (ligand: [3H] Mesulergine). The settings on record: Not Active = under 50% inhibition at 10 µM. In kind it is cell membranes, CHO-K1, Membrane.

Assay [3] has as its target T2, Cholecystokinin receptor type A (Homo sapiens, UniProt P32238). Note: in other assays of this panel Not Active means under 50% inhibition at 10 µM.
T2 sequence (P32238 whole entry): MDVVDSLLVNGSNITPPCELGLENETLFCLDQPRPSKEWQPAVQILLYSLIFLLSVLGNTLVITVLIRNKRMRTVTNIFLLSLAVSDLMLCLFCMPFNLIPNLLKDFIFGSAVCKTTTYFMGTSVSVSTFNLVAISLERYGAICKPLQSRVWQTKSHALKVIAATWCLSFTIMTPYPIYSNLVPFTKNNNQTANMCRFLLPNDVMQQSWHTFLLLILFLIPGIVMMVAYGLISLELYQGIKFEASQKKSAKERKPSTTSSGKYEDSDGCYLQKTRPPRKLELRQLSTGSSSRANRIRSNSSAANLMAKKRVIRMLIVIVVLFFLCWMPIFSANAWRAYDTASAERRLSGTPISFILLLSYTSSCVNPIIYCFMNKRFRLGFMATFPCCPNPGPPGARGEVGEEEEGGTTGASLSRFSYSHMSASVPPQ
Format: cell membranes, Membrane. Particulars: 1321-n1.

A further assay has as its target T3, D(4) dopamine receptor (Homo sapiens, UniProt P21917).
T3 sequence (P21917 whole entry): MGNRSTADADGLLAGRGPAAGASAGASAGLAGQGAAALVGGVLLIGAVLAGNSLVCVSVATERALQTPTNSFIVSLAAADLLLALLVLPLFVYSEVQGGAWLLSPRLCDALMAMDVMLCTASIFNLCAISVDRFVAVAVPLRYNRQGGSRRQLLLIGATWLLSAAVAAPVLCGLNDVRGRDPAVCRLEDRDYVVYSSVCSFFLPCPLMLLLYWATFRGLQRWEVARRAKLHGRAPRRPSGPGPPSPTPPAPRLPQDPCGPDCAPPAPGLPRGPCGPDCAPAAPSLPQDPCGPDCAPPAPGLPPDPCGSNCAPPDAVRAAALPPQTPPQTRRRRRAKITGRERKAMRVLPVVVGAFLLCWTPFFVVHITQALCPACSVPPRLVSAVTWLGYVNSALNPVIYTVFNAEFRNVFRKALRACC
The assay is described as follows: DRUGMATRIX: Dopamine D4.2 radioligand binding (ligand: [3H] Spiperone). Format: cell membranes, CHO-K1, Membrane. Particulars: cho-k1; Not Active = under 50% inhibition at 10 µM.

In assay [4] the target is Mitogen-activated protein kinase 14 (Homo sapiens, UniProt Q16539). Also noted: species or system Escherichia coli.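 Note: inhibition of p38alpha enzyme activity in a biochemical kinase assay, with myelin basic protein serving as substrate; in other assays of this panel Not Active means under 50% inhibition at 10 µM.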
In the next assay the target is T4, Estrogen receptor (Homo sapiens, UniProt P03372). Note: in other assays of this panel Not Active means under 50% inhibition at 10 µM.
T4 sequence (P03372 whole entry): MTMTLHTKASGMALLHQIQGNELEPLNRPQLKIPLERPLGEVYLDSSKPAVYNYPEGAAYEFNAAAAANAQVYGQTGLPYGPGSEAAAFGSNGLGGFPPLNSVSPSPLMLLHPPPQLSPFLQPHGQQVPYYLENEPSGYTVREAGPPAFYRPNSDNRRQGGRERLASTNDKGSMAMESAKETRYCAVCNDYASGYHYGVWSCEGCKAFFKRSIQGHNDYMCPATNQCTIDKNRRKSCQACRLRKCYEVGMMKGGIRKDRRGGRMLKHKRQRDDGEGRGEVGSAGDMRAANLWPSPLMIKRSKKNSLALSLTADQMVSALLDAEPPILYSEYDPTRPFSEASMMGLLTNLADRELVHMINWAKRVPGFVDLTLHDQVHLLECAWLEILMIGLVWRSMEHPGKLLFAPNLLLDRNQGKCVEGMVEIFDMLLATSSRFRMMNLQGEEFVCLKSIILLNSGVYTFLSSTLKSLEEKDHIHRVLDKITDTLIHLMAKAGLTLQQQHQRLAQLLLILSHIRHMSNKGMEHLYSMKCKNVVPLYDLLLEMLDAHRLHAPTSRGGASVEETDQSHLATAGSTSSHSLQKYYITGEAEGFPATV
The settings on record: sf9.

Sequence of Mitogen-activated protein kinase 14 (Q16539 whole entry): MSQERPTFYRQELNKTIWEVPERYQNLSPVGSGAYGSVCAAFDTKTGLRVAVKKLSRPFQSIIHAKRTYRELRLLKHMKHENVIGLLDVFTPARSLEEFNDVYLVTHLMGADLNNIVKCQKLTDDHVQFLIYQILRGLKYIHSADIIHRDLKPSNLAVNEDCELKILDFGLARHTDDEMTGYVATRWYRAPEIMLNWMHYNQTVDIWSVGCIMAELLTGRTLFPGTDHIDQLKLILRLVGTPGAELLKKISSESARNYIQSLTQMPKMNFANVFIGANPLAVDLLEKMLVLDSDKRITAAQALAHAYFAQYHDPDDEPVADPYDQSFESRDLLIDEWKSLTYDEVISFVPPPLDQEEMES

The term IC50 denotes the concentration needed to halve the response being measured. As a reminder, the Ki is the equilibrium dissociation constant of an inhibitor or competing ligand from its target. On to `O=c1cnn([C@@H]2O[C@H](CO)[C@@H](O)[C@H]2O)c(=O)[nH]1` [6-AZAURIDINE], for which the IC50 entry (in assay [1]; in assay [2] (cho-k1); in assay [3]; on D(4) dopamine receptor; in assay [4]; against Estrogen receptor) was “Not Active” throughout. In addition, the inhibition constant Ki entry in assay [1] was “Not Active”.

Turning to `O=C(c1ccccc1C(F)(F)F)N1CCC(Cc2ccccc2)CC1`, the IC50 entry in assay [1] is “Not Active”; in assay [2] (cho-k1) it was “Not Active”; in assay [3], “Not Active”; at D(4) dopamine receptor it was “Not Active”; in assay [4] (read-out: IC50), 715 nM; on Estrogen receptor it was “Not Active”. In addition, in assay [1], the inhibition constant (Ki) entry is “Not Active”.

With `O=c1cc(N2CCOCC2)oc2c(-c3ccccc3)cccc12` [LY-294002], the IC50 entry in assay [1] is “Not Active”; in assay [2] (read-out: IC50), 1000 nM; in assay [3], “Not Active”; at D(4) dopamine receptor it was “Not Active”; in assay [4], “Not Active”; at Estrogen receptor, “Not Active”. Besides, the Ki entry in assay [1] was “Not Active”; in assay [2] (read-out: Ki), 525 nM.

As for `NC(=O)C[S+]([O-])C(c1ccccc1)c1ccccc1` (centres undefined) [MODAFINIL], the IC50 result (in assay [1]; in assay [2] (cho-k1); in assay [3]; on D(4) dopamine receptor; in assay [4]; against Estrogen receptor) was “Not Active” in each case. In addition, in assay [1], the Ki entry is “Not Active”.

On to `CC(C)(C)NC(=O)[C@H]1CC[C@H]2[C@@H]3CC[C@H]4NC(=O)C=C[C@]4(C)[C@H]3CC[C@]12C` [FINASTERIDE], for which the IC50 result (in assay [1]; in assay [2] (cho-k1); in assay [3]; on D(4) dopamine receptor; in assay [4]; on Estrogen receptor) was “Not Active” each time. In addition, the Ki result in assay [1] is given as “Not Active”.

Turning to `CC(C)NNC(=O)c1ccncc1` [IPRONIAZID], the IC50 entry (in assay [1]; in assay [2] (cho-k1); in assay [3]; on D(4) dopamine receptor; in assay [4]; at Estrogen receptor) was “Not Active” each time. Further, the Ki entry in assay [1] was “Not Active”.

GRAMICIDIN: the IC50 entry (in assay [1]; in assay [2] (cho-k1); in assay [3]; on D(4) dopamine receptor; in assay [4]; on Estrogen receptor) was “Not Active” each time. For the same compound, the Ki result (in assay [1]; in assay [2] (cho-k1); in assay [3]; on D(4) dopamine receptor; in assay [4]; on Estrogen receptor) was “Not Active” in each case.

For the compound `Oc1cccc(O)c1O` [PYROGALLOL], the IC50 entry (in assay [1]; in assay [2] (cho-k1); in assay [3]; at D(4) dopamine receptor; in assay [4]; at Estrogen receptor) was “Not Active” each time. Besides, the Ki entry in assay [1] was “Not Active”.

For the compound `COc1cc2nc(N3CCN(C(=O)c4ccco4)CC3)nc(N)c2cc1OC` [PRAZOSIN], the IC50 result (in assay [1]; in assay [2] (cho-k1); in assay [3]; on D(4) dopamine receptor; in assay [4]; against Estrogen receptor) was “Not Active” in each case. In assay [1], the Ki result is recorded as “Not Active”.

As to `C[C@]12C=CC(=O)C=C1CC[C@@H]1[C@@H]2[C@@H](O)C[C@@]2(C)[C@H]1CC[C@]2(O)C(=O)CO` [PREDNISOLONE], the IC50 entry (in assay [1]; in assay [2] (cho-k1); in assay [3]; at D(4) dopamine receptor; in assay [4]; on Estrogen receptor) was “Not Active” each time. The Ki entry in assay [1] is recorded as “Not Active”.

`C[n+]1ccccc1/C=N/O.[Cl-]` [PRALIDOXIME CHLORIDE]: the IC50 entry (in assay [1]; in assay [2] (cho-k1); in assay [3]; at D(4) dopamine receptor; in assay [4]; against Estrogen receptor) was “Not Active” throughout. Moreover, the Ki result in assay [1] is “Not Active”.

`COc1ccc2c3c1O[C@H]1C[C@@H](O)C=C[C@@]31CCN(C)C2` [GALANTAMINE]: the IC50 entry (in assay [1]; in assay [2] (cho-k1); in assay [3]; at D(4) dopamine receptor; in assay [4]; at Estrogen receptor) was “Not Active” throughout. Besides, the Ki result in assay [1] is “Not Active”.

Turning to `COC1=C(OC)C(=O)C(CCCCCCCCCCO)=C(C)C1=O` [IDEBENONE], the IC50 entry (in assay [1]; in assay [2] (cho-k1); in assay [3]; on D(4) dopamine receptor; in assay [4]; on Estrogen receptor) was “Not Active” in each case. In addition, in assay [1], the Ki entry is “Not Active”.

For `COc1ccc2[nH]cc(CCNC(C)=O)c2c1` [MELATONIN], the 50% inhibitory concentration (IC50) result (in assay [1]; in assay [2] (cho-k1); in assay [3]; at D(4) dopamine receptor; in assay [4]; at Estrogen receptor) was “Not Active” throughout. Besides, the Ki entry in assay [1] is listed as “Not Active”.

For the compound `O=C/C=C/c1ccccc1`, the IC50 result (in assay [1]; in assay [2] (cho-k1); in assay [3]; on D(4) dopamine receptor; in assay [4]; on Estrogen receptor) was “Not Active” each time. Also, the Ki result in assay [1] was “Not Active”.

For the compound `COc1ccc2cc3[n+](cc2c1OC)CCc1cc2c(cc1-3)OCO2.[Cl-]` [BERBERINE CHLORIDE], the IC50 result (in assay [1]; in assay [2] (cho-k1); in assay [3]; on D(4) dopamine receptor; in assay [4]; on Estrogen receptor) was “Not Active” in each case. For the same compound, the Ki entry in assay [1] is “Not Active”.

For the compound `OC(CCCN1CCCCC1)(c1ccccc1)c1ccccc1` [DIPHENIDOL], the IC50 result (in assay [1]; in assay [2] (cho-k1); in assay [3]; on D(4) dopamine receptor; in assay [4]; against Estrogen receptor) was “Not Active” each time. Besides, the Ki result in assay [1] is “Not Active”.

As to `Cn1c(=O)c2c(ncn2CC(O)CO)n(C)c1=O` (centres undefined) [DYPHYLLINE], the IC50 result (in assay [1]; in assay [2] (cho-k1); in assay [3]; on D(4) dopamine receptor; in assay [4]; against Estrogen receptor) was “Not Active” each time. Moreover, the Ki entry in assay [1] is “Not Active”.

`CC(C(=O)O)c1ccc2oc(-c3ccc(Cl)cc3)nc2c1` (centres undefined) [BENOXAPROFEN]: the IC50 entry (in assay [1]; in assay [2] (cho-k1); in assay [3]; on D(4) dopamine receptor; in assay [4]; against Estrogen receptor) was “Not Active” throughout. For the same compound, in assay [1], the Ki result was “Not Active”.

The values are drawn from ChEMBL document CHEMBL1909046, “DrugMatrix in vitro pharmacology data”.
